Results: ChEMBL document CHEMBL1667768, “Compounds containing 2-substituted imidazole ring for treatment against human African trypanosomiasis” (Bioorg Med Chem Lett, 2011)
Converted amounts (≈) assume the structure as drawn.

Legend:
[1] = tested on: Trypanosoma brucei rhodesiense; test: Antimicrobial activity against Trypanosoma brucei rhodesiense after 48 hrs by proliferation assay; format: functional, organism-based
L6 = test: Cytotoxicity against rat L6 cells after 72 hrs by SRB assay; format: cell-based; settings: L6, 72 h
[2] = Aqueous solubility of the compound at pH 1.5 at 25 degC; format: physicochemical
[3] = Aqueous solubility of the compound at pH 7.5 at 25 degC; format: physicochemical

| Compound | IC50 [1] [µM] | solubility [2] [µM] | solubility [3] [µM] | IC50 (L6) [µM] |
| --- | --- | --- | --- | --- |
| Cc1cc(OCc2ncc([N+](=O)[O-])n2C)ccn1 | 27 | 4.3 (≈ 1.07 µg/mL) | 2.2 (≈ 0.546 µg/mL) | 286 |
| CSc1ccc(OCc2nc([N+](=O)[O-])cn2C)cc1 | > 30 | 5.1 (≈ 1.42 µg/mL) | 2.5 (≈ 0.698 µg/mL) | > 400 |
| Cn1c([N+](=O)[O-])cnc1COc1ccccc1 | > 30 | 5.7 (≈ 1.33 µg/mL) | 2.1 (≈ 0.49 µg/mL) | > 400 |
| Cn1c([N+](=O)[O-])cnc1COc1ccncc1 | > 30 | 4.8 (≈ 1.12 µg/mL) | 2.7 (≈ 0.632 µg/mL) | > 400 |
| CCc1cc(OCc2ncc([N+](=O)[O-])n2C)ccn1 | 25 | 5.9 (≈ 1.55 µg/mL) | 3.1 (≈ 0.813 µg/mL) | 243 |
| CSc1ccc(OCc2ncc(Cl)n2C)cc1 | > 30 | 21 (≈ 5.64 µg/mL) | 8.7 (≈ 2.34 µg/mL) | > 400 |
| CSc1ccc(OCc2ncc(Br)n2C)cc1 | > 30 | 18.5 (≈ 5.79 µg/mL) | 8.5 (≈ 2.66 µg/mL) | > 400 |
| CSc1ccc(OCc2ncc(S(=O)(=O)O)n2C)cc1 | > 30 | 25.4 (≈ 7.99 µg/mL) | 8.2 (≈ 2.58 µg/mL) | > 400 |
| CSc1ccc(OCc2nc(Cl)c(Cl)n2C)cc1 | > 30 | 45.5 (≈ 13.8 µg/mL) | 25.5 (≈ 7.73 µg/mL) | > 400 |
| CSc1ccc(OCc2nc(Br)c(Cl)n2C)cc1 | > 30 | 37.5 (≈ 13 µg/mL) | 21.7 (≈ 7.54 µg/mL) | > 400 |
| CSc1ccc(OCc2nc(Br)c(Br)n2C)cc1 | > 30 | 41.2 (≈ 16.2 µg/mL) | 24.5 (≈ 9.61 µg/mL) | > 400 |
| CSc1ccc(OCc2nc(Cl)c(Br)n2C)cc1 | > 30 | 35.8 (≈ 12.4 µg/mL) | 24.9 (≈ 8.66 µg/mL) | > 400 |

Stronger by IC50 [1], values ahead:

| IC50 [1] [µM] | solubility [2] [µM] | solubility [3] [µM] | Compound | IC50 (L6) [µM] |
| --- | --- | --- | --- | --- |
| 0.7 | 5.5 (≈ 1.54 µg/mL) | 2.5 (≈ 0.698 µg/mL) | CSc1ccc(OCc2ncc([N+](=O)[O-])n2C)cc1 [FEXINIDAZOLE] | 377 |
| 0.67 | 5.6 (≈ 1.78 µg/mL) | 3.5 (≈ 1.11 µg/mL) | Cn1c([N+](=O)[O-])cnc1COc1ccnc(N2CCNCC2)c1 | 255 |
| 0.55 | 16.7 (≈ 5.98 µg/mL) | 5.8 (≈ 2.08 µg/mL) | CSc1ccc(OCc2nc(Br)c([N+](=O)[O-])n2C)cc1 | 0.8 |
| 0.37 | 22.8 (≈ 8.19 µg/mL) | 7.9 (≈ 2.84 µg/mL) | CSc1ccc(OCc2nc(S(=O)(=O)O)c([N+](=O)[O-])n2C)cc1 | 0.2 |
| 0.25 | 17.1 (≈ 5.37 µg/mL) | 5.9 (≈ 1.85 µg/mL) | CSc1ccc(OCc2nc(Cl)c([N+](=O)[O-])n2C)cc1 | 0.2 |
